# Measured values reported in US6979690B2, “Oxo or oxy-pyridine compounds as 5-HT4 receptor modulators” (Pfizer Inc., priority 2002, dated 2005).
row,melting point [°C],SMILES
1,230.6,COc1nc(N)c(Cl)cc1C(=O)CCC1CCNCC1.Cl
2,136 to 140,"CCN1CCC(CNC(=O)c2cc(Cl)c(N)[nH]c2=O)CC1 [Example 1, 6-Amino-5-chloro-N-[(1-ethyl-4-piperidinyl)methyl]-2-oxo-1,2-dihydro-3-pyridinecarboxamide]"
3,131 to 135,"CC(C)CCN1CCC(CNC(=O)c2cc(Cl)c(N)[nH]c2=O)CC1 [Example 5, 6-Amino-5-chloro-N-{[1-(3-methylbutyl)-4-piperidinyl]methyl}-2-oxo-1,2-dihydro-3-pyridinecarboxamide]"
4,128 to 133,"CC(C)CN1CCC(CNC(=O)c2cc(Cl)c(N)[nH]c2=O)CC1 [Example 6, 6-Amino-5-chloro-N-{[1-(2-methylpropyl)-4-piperidinyl]methyl}-2-oxo-1,2-dihydro-3-pyridinecarboxamide]"
5,162 to 164,"CCOC(=O)CN1CCC(CNC(=O)c2cc(Cl)c(N)[nH]c2=O)CC1 [Example 7, Ethyl [4-({[(6-amino-5-chloro-2-oxo-1,2-dihydro-3-pyridinyl)carbonyl]amino}methyl)-1-piperidinyl]acetate]"
6,200 to 203,"CC(C)(C)OC(=O)CN1CCC(CNC(=O)c2cc(Cl)c(N)[nH]c2=O)CC1 [Example 8, 1,1-Dimethylethyl [4-({[(6-amino-5-chloro-2-oxo-1,2-dihydro-3-pyridinyl)carbonyl]amino}methyl)-1-piperidinyl]acetate]"
7,86 to 87,"CCCCN1CCC(CCC(=O)c2cc(Cl)c(N)nc2OC)CC1 [Example 10, 1-[6-Amino-5-chloro-2-(methoxy)-3-pyridinyl]-3-(1-butyl-4-piperidinyl)-1-propanone]"
8,85 to 89,"CCCCN1CCC(CCC(=O)c2ccc(N)nc2OC)CC1 [Example 12, 1-(6-Amino-2-methoxy-3-pyridinyl)-3-(1-butyl-4-piperidinyl)-1-propanone]"
9,128,"COc1nc(N)c(Cl)cc1C(=O)CCC1CCN(CC(C)C)CC1 [Example 14, 1-(6-Amino-5-chloro-2-methoxy-3-pyridinyl)-3-(1-isobutyl-4-piperidinyl)-1-propanone]"
10,175,"CC(C)CN1CCC(CCC(=O)c2cc(Cl)c(N)[nH]c2=O)CC1 [Example 15, 6-Amino-5-chloro-3-[3-(1-isobutyl-4-piperidinyl)propanoyl]-2(1H)-pyridinone]"
11,73.2,"COc1nc(N)ccc1C(=O)CCC1CCN(CC2CCCCC2)CC1 [Example 16, 1-(6-Amino-2-methoxy-3-pyridinyl)-3-[1-(cyclohexylmethyl)-4-piperidinyl]-1-propanone]"
12,164.3,"Nc1[nH]c(=O)c(C(=O)CCC2CCN(CC3CCCCC3)CC2)cc1Cl [Example 106, 6-Amino-5-chloro-3-{3-[1-(cyclohexylmethyl)piperidine-4-yl]propanoyl}pyridin-2(1H)-one]"
13,134,"COc1nc(N)c(Cl)cc1C(=O)CCC1CCN(CC(O)C(C)(C)C)CC1 (stereo not drawn) [Example 107, 1-(6-Amino-5-chloro-2-methoxypyridin-3-yl)-3-[1-(2-hydroxy-3,3-dimethylbutyl)piperidine-4-yl]propan-1-one]"
14,211.3,"CC(C)(C)C(O)CN1CCC(CCC(=O)c2cc(Cl)c(N)[nH]c2=O)CC1 (stereo not drawn) [Example 108, 6-Amino-5-chloro-3-{3-[1-(2-hydroxy-3,3-dimethylbutyl)-piperidine-4-yl]propanoyl}pyridin-2(1H)-one]"
15,108.1,"COc1nc(N)c(Cl)cc1C(=O)CCC1CCN(CC(C)(C)O)CC1 [Example 109, 1-(6-Amino-5-chloro-2-methoxypyridin-3-yl)-3-[1-(2-hydroxy-2-methylpropyl)piperidine-4-yl]propan-1-one]"
